Drawing on ChEMBL document CHEMBL6087484, “Discovery of Novel Small-Molecule Inhibitors Disrupting the MTDH-SND1 Protein-Protein Interaction” (J Med Chem, 2025), this text covers IC50 for 11 compounds.

The subject of this test is MCF7. The test is described as follows: Anti-proliferative activity against human MCF7 cells assessed as cell viability measured after 72 hrs by CCK8 assay. The settings on record: MCF7, 72 h.

In the case of `COc1ccc(Cl)cc1S(=O)(=O)Nc1cccn2ncnc12`, the IC50 was more than 10000 nM.

In the case of `O=S(=O)(Nc1cccc2cccnc12)c1cccc2cccnc12`, the IC50 is 901 nM.

Turning to `O=S(=O)(Nc1cc(Br)cc2cccnc12)c1cccc2cccnc12`, the IC50 turned out to be 2110 nM.

In the case of `O=S(=O)(Nc1cc(Cl)cc2cccnc12)c1cccc2cccnc12`, the IC50 amounted to 1170 nM.

`CC(C)N1CCN(c2ccc(NS(=O)(=O)c3cccc4cccnc34)c3ncccc23)CC1`: the IC50 amounted to 6420 nM.

With `Cc1ccc2cccc(NS(=O)(=O)c3cccc4cccnc34)c2n1`, the IC50 is more than 10000 nM.

Regarding `O=S(=O)(Nc1cccc2cc(Nc3ccccc3)cnc12)c1cccc2cccnc12`, the IC50 was more than 10000 nM.

With `O=S(=O)(Nc1ccc(Cl)c2cccnc12)c1cccc2cccnc12`, the IC50 amounted to 2890 nM.

As to `O=S(=O)(Nc1cccc2cc(Br)cnc12)c1cccc2cccnc12`, the IC50 was found to be 4380 nM.

In the case of `COc1cc(NS(=O)(=O)c2cccc3cccnc23)c2ncccc2c1`, the IC50 is 2350 nM.

Consider `O=S(=O)(Nc1ccc(Br)c2cccnc12)c1cccc2cccnc12`, for which the IC50 was 2190 nM.
